Measured values taken from patent publication US20190300842A1, “SYSTEMS AND METHODS FOR CONTINUOUSLY CULTURING MICROALGAE IN MIXOTROPHIC CONDITIONS” (HELIAE DEVELOPMENT, LLC, priority 2016, published 2019).
Read-outs that look alike come from different tables or passages of the source.

Test system: bacterial growth
Method: An experiment was conducted to compare a semi-continuous and continuous auxostat mixotrophic microalgae operation in an open outdoor bioreactor utilizing recycled media. The outdoor bioreactor system, protocols, and type of microalgae (Chlorella) was the same as described in Example 7. Different treatments were applied to the centrate resulting from membrane filter separation. The continuous media was treated with 14 g/L acetic acid. […] The media used for semi-continuous after each partial harvest was treated with 100% filtered ozone and stabilized by refrigeration at 4° C. After the first harvest, continuous treatment started in two of the four reactors. In the time between the continuous switch and the first partial harvest, non-recycled continuous feed media was used to maintain pH on the continuous cultures through the pH auxostat.

**Q.** Which “bacterial growth in centrate (quantity not named in Table 4)” value (acetic acid 5 g/L, 7 days) does the source give for `CC(=O)O` [Acetic acid, acetic acid] here?
**A.** The value was 0.00.

**Q.** What about the “bacterial growth in centrate (quantity not named in Table 4)” value (acetic acid 5 g/L, 14 days) of the same molecule?
**A.** The value was 0.00.

**Q.** And the “bacterial growth in centrate (quantity not named in Table 4)” value (acetic acid 5 g/L, 21 days)?
**A.** The value was 0.00.

**Q.** And the “bacterial growth in centrate (quantity not named in Table 4)” value (acetic acid 10 g/L, 7 days)?
**A.** The value was 0.00.

**Q.** And the “bacterial growth in centrate (quantity not named in Table 4)” value (acetic acid 10 g/L, 14 days)?
**A.** The value was 0.00.

**Q.** And the “bacterial growth in centrate (quantity not named in Table 4)” value (acetic acid 10 g/L, 21 days)?
**A.** The value was 0.00.

**Q.** And the “bacterial growth in centrate (quantity not named in Table 4)” value (acetic acid 15 g/L, 7 days)?
**A.** Its value is 0.00.

**Q.** And the “bacterial growth in centrate (quantity not named in Table 4)” value (acetic acid 15 g/L, 14 days)?
**A.** The value was 0.00.

**Q.** And the “bacterial growth in centrate (quantity not named in Table 4)” value (acetic acid 15 g/L, 21 days)?
**A.** The value was 0.00.

**Q.** What about the “period for which the centrate could be stabilized” value (addition of at least 5 g/L acetic acid) of the same molecule?
**A.** Its value is over 21 days.

**Q.** What about the bacterial growth (treatments of 5 g/L acetic acid and above, up to 21 days) of the same molecule?
**A.** Its bacterial growth is “No bacterial growth was observed”.
